What all share (format): cell-based
One test deals with T1, Rat mGlu3 (Rattus norvegicus, UniProt P31422).
T1 construct: expressed in transfected cells; host or cells: HEK-293 co-expressing GIRK channels
The test is described as follows: mGlu receptor in vitro assay (thallium flux through GIRK channels / calcium assay), rat mGlu3. To be noted: PAM potency with EC20 glutamate. In short, it runs like this: (§1)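 HEK-293 cells co-expressing rat mGlu2 or mGlu3 and GIRK, dye-loaded with FluoZin2-AM, compound added about 2.5 min before thallium buffer with EC20 glutamate; potency from the 5-15 s fluorescence slope, 10-point 4-parameter fit. Calcium assay at mGlu3 used TREx293 mGlu3 Gα15 cells induced with tetracycline 20 ng/mL for 20 h.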

For a further test, the target named is Human mGlu3 (Homo sapiens, UniProt Q14832). The test is described as follows: mGlu receptor in vitro assay, human mGlu3.
Chain of Human mGlu3 (Q14832 23-879): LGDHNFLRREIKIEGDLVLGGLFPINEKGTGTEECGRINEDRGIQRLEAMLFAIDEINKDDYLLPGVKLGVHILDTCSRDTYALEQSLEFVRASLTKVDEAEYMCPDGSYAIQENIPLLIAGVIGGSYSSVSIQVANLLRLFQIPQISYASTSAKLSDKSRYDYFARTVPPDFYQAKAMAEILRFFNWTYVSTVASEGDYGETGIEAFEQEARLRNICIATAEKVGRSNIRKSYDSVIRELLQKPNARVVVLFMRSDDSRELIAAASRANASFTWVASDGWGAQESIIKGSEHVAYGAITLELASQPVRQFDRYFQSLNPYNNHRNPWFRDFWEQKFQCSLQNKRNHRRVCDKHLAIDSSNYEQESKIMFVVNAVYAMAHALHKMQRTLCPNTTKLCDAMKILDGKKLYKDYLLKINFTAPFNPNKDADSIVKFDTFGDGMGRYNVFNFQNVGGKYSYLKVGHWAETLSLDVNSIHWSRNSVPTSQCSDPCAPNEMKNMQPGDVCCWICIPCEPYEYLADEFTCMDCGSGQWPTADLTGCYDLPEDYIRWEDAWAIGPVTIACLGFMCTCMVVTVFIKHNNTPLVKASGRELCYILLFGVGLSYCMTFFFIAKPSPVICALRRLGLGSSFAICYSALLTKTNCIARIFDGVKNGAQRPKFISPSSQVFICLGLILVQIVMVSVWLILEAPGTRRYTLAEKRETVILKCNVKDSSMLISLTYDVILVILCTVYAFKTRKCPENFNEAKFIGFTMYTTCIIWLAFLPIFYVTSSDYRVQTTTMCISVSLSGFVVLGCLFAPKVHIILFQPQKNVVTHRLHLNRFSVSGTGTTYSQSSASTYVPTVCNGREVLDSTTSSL
In the next test the target is T2, Rat mGlu2 (Rattus norvegicus, UniProt P31421).
T2 construct: expressed in transfected cells; host or cells: HEK-293 co-expressing GIRK channels
T2 sequence (P31421 19-872): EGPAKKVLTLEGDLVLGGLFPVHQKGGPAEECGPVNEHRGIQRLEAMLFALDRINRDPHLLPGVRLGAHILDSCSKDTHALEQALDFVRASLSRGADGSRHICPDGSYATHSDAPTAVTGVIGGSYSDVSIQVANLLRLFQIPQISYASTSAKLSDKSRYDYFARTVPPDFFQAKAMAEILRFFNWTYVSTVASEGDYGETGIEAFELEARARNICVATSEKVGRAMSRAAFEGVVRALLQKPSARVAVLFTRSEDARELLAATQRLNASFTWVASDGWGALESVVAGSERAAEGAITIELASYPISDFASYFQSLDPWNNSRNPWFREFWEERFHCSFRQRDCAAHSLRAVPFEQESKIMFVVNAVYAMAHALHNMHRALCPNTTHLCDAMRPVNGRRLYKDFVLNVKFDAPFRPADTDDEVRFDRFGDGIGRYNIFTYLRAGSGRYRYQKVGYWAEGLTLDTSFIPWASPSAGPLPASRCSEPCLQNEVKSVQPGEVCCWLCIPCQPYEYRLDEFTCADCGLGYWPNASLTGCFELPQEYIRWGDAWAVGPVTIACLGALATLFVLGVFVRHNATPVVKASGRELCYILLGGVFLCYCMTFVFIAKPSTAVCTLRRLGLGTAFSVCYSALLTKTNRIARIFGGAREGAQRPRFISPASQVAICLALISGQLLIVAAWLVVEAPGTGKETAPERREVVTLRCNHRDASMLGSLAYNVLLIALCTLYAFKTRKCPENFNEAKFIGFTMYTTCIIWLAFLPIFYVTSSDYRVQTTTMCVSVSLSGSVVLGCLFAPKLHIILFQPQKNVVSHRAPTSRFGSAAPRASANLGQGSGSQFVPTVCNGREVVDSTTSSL
Briefly: mGlu receptor in vitro assay, thallium flux through GIRK channels, rat mGlu2. Conditions: PAM potency with EC20 glutamate. In short, it runs like this:
as §1

For a further test, the target named is Human mGlu2 (Homo sapiens, UniProt Q14416). The test is described as follows: mGlu receptor in vitro assay, human mGlu2.
Chain of Human mGlu2 (Q14416 19-872): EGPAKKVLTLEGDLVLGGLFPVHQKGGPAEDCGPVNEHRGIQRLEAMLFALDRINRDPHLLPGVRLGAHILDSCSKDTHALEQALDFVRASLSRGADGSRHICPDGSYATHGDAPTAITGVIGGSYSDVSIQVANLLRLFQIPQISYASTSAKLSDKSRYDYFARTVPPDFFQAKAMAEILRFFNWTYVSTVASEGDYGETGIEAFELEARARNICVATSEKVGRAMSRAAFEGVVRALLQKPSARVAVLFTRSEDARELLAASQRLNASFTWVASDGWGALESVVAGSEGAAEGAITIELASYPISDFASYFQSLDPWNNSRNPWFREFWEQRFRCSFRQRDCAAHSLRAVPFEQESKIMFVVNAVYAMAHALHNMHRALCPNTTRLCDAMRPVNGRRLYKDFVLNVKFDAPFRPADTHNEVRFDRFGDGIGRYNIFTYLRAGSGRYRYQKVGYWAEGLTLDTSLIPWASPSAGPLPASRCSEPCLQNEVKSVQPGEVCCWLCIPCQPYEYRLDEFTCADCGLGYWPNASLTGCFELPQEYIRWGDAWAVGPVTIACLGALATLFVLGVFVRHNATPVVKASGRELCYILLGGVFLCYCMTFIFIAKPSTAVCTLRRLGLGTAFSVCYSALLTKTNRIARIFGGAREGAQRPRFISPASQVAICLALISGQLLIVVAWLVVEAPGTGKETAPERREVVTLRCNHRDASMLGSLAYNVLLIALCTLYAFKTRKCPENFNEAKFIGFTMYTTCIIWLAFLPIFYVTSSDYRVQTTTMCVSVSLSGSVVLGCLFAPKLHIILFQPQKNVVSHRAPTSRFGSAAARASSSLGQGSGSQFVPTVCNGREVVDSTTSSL

A value given as a limit tells only on which side of the number the result lay.

In general, EC50 refers to the concentration giving half of the maximal effect.

T1 sequence (P31422 23-879): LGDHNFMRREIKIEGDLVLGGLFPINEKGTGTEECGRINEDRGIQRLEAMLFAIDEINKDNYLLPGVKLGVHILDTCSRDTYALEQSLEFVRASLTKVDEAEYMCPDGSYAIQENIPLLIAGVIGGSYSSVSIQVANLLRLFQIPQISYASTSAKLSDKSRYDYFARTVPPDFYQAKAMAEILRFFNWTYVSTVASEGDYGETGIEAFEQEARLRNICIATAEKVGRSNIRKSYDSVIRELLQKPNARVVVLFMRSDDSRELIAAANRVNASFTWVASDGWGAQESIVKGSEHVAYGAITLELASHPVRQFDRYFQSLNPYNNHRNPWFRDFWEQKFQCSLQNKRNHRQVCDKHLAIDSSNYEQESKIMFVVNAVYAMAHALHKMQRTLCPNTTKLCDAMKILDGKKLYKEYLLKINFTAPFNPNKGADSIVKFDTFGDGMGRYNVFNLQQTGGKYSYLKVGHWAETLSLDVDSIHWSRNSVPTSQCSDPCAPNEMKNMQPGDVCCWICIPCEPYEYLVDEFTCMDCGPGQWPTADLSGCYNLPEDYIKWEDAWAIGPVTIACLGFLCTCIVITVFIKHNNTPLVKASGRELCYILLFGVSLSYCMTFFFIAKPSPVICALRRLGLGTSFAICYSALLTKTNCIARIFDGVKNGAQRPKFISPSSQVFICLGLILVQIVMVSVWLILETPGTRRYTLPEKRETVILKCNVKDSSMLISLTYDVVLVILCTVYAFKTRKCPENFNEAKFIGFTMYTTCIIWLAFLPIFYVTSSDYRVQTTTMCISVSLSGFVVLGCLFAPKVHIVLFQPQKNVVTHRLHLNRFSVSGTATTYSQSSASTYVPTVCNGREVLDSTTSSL

In the case of `CCCC(=O)c1ccc(OCCCCCOc2ccc(C(=O)O)cc2Cl)c(C)c1O` [Example 50, 4-[5-(4-Butanoyl-3-hydroxy-2-methylphenoxy)pentyloxy]-3-chlorobenzoic acid], the EC50 is over 10000 nM on Rat mGlu3, over 10000 nM at Human mGlu3, 43 nM at Rat mGlu2 and 21 nM on Human mGlu2.

`Cc1c(OCc2nc(-c3cccc(C(=O)O)c3)no2)ccc(C(=O)CC(C)(C)C)c1O` [compound 133, 3-(5-((4-(3,3-Dimethylbutanoyl)-3-hydroxy-2-methylphenoxy)methyl)-1,2,4-oxadiazol-3-yl)benzoic acid]: the EC50 at Rat mGlu3 was 247 nM; at Human mGlu3, 79 nM; at Rat mGlu2 it was 268 nM; on Human mGlu2, 74 nM.

`Cc1c(OCC#CCOc2ccc(C(=O)CC(C)(C)C)c(O)c2C)cccc1C(=O)O` [Example 22, 3-{4-[4-(3,3-Dimethylbutanoyl)-3-hydroxy-2-methylphenoxy]but-2-ynyloxy}-2-methylbenzoic acid]: the EC50 on Rat mGlu3 turned out to be 20 nM; on Human mGlu3, 39 nM; at Rat mGlu2, 16 nM; on Human mGlu2, 4 nM.

For the compound `COc1ccc(C(=O)O)cc1OCCCCOc1ccc(C(=O)C2CC2)c(O)c1C` [compound 60, 3-(4-(4-(Cyclopropanecarbonyl)-3-hydroxy-2-methylphenoxy)butoxy)-4-methoxybenzoic acid], the EC50 on Rat mGlu3 was over 10000 nM; at Human mGlu3, 598 nM; on Rat mGlu2 it was 117 nM; at Human mGlu2, 60 nM.

As to `COc1ccc(C(=O)O)cc1OCCC(C)(C)CCOc1ccc(C(=O)CC(C)(C)C)c(O)c1C` [Example 29, 3-{5-[4-(3,3-Dimethylbutanoyl)-3-hydroxy-2-methylphenoxy]-3,3-dimethylpentyloxy}-4-methoxybenzoic acid], the EC50 came out at 1030 nM on Rat mGlu3, 634 nM at Human mGlu3, 215 nM at Rat mGlu2 and 147 nM on Human mGlu2.

Turning to `COc1c(C(=O)O)cccc1-c1ccc(COc2ccc(C(=O)CC(C)(C)C)c(O)c2C)cc1` [compound 104, 3-(4-{[4-(3,3-Dimethylbutanoyl)-3-hydroxy-2-methylphenoxy]methyl}phenyl)-2-methoxybenzoic acid], the EC50 at Rat mGlu3 worked out at 69 nM; on Human mGlu3, 222 nM; at Rat mGlu2 it was 303 nM; at Human mGlu2, 190 nM.

On to `Cc1c(OCc2cccc(-c3cccc(C(=O)NC#N)c3)c2)ccc(C(=O)CC(C)(C)C)c1O` [compound 162, N-Cyano-3′-((4-(3,3-dimethylbutanoyl)-3-hydroxy-2-methylphenoxy)methyl)-[1,1′-biphenyl]-3-carboxamide], for which the half-maximal effective concentration (EC50) was 145 nM at Rat mGlu3, 593 nM on Human mGlu3, 166 nM at Rat mGlu2 and 234 nM on Human mGlu2.

Turning to `CCCC(=O)c1ccc(OCCOCCNc2cccc(C(=O)O)c2)c(C)c1O` [Example 9, 3-({2-[2-(4-Butanoyl-3-hydroxy-2-methylphenoxy)ethoxy]ethyl}amino)benzoic acid], the EC50 was over 10000 nM at Rat mGlu3, over 10000 nM on Human mGlu3, 73 nM on Rat mGlu2 and 50 nM on Human mGlu2.

Turning to `Cc1c(OCc2cnc(-c3ccc(F)c(C(=O)O)c3)cn2)ccc(C(=O)CC(C)(C)C)c1O` [compound 115, 5-(5-((4-(3,3-Dimethylbutanoyl)-3-hydroxy-2-methylphenoxy)methyl)pyrazin-2-yl)-2-fluorobenzoic acid], the EC50 was 43 nM at Rat mGlu3, 156 nM at Human mGlu3, 356 nM at Rat mGlu2 and 355 nM at Human mGlu2.

`COc1cc(F)c(C(=O)O)cc1-c1cnc(COc2ccc(C(=O)CC(C)(C)C)c(O)c2C)cn1` [compound 130, 5-(5-((4-(3,3-Dimethylbutanoyl)-3-hydroxy-2-methylphenoxy)methyl)pyrazin-2-yl)-2-fluoro-4-methoxybenzoic acid]: the EC50 on Rat mGlu3 was 53 nM; on Human mGlu3 it was 31 nM; at Rat mGlu2, 254 nM; on Human mGlu2, 76 nM.

For the compound `CCCC(=O)c1ccc(OCC2(COc3cccc(C(=O)O)c3C)CC2)c(C)c1O` [Example 36, 3-({[(4-Butanoyl-3-hydroxy-2-methylphenoxy)methyl]cyclopropyl}methoxy)-2-methylbenzoic acid], the EC50 was over 30000 nM on Rat mGlu3, over 30000 nM on Human mGlu3, 89 nM on Rat mGlu2 and 14 nM on Human mGlu2.

For `CCCC(=O)c1ccc(OCCCCCOc2cccc(C(=O)O)c2C)c(C)c1O` [Example 13], the EC50 at Rat mGlu3 is over 10000 nM; at Human mGlu3, over 10000 nM; on Rat mGlu2, 114 nM; on Human mGlu2 it was 52 nM.

Turning to `CCCC(=O)c1ccc(OCCCCOc2ccc(C(=O)O)c(Cl)c2)c(C)c1O` [compound 101, 4-[4-(4-Butanoyl-3-hydroxy-2-methylphenoxy)butoxy]-2-chlorobenzoic acid], the EC50 on Rat mGlu3 was over 30000 nM; at Human mGlu3, over 30000 nM; on Rat mGlu2, 33 nM; on Human mGlu2, 16 nM.

On to `COc1ccc(C(=O)O)cc1-c1cnc(COc2ccc(C(=O)CC(C)(C)C)c(O)c2C)cn1` [compound 116, 3-(5-((4-(3,3-Dimethylbutanoyl)-3-hydroxy-2-methylphenoxy)methyl)pyrazin-2-yl)-4-methoxybenzoic acid], for which the concentration giving a half-maximal response (EC50) stood at 28 nM at Rat mGlu3, 213 nM at Human mGlu3, 117 nM on Rat mGlu2 and 234 nM at Human mGlu2.

Regarding `COc1ccc(C(=O)O)cc1OCCCCCCOc1ccc(C(=O)CC(C)(C)C)c(O)c1C` [Example 19, 3-{6-[4-(3,3-Dimethylbutanoyl)-3-hydroxy-2-methylphenoxy]hexyloxy}-4-methoxybenzoic acid], the EC50 amounted to 818 nM on Rat mGlu3, 472 nM at Human mGlu3, 288 nM on Rat mGlu2 and 165 nM on Human mGlu2.

On to `Cc1c(OCOc2ccc(C(=O)CC(C)(C)C)c(O)c2C)cccc1C(=O)O` [compound 94, 3-{[4-(3,3-Dimethylbutanoyl)-3-hydroxy-2-methylphenoxy]methoxy}-2-methylbenzoic acid], for which the EC50 was over 30000 nM on Rat mGlu3, over 10000 nM on Human mGlu3, 441 nM on Rat mGlu2 and 100 nM on Human mGlu2.

For the compound `CCCC(=O)c1ccc(OCCOCCOc2ccc(C(=O)O)c(Cl)c2)c(C)c1O` [Example 41, 4-{2-[2-(4-Butanoyl-3-hydroxy-2-methylphenoxy)ethoxy]ethoxy}-2-chlorobenzoic acid], the EC50 on Rat mGlu3 turned out to be 1000 nM; on Human mGlu3, 886 nM; at Rat mGlu2, 15 nM; on Human mGlu2, 8 nM.

With `CCCC(=O)c1ccc(OCCOCCOc2ccc(C(=O)O)cc2OC)c(C)c1O` [Example 5, 4-(2-(2-(4-Butyryl-3-hydroxy-2-methylphenoxy)ethoxy)ethoxy)-3-methoxybenzoic acid], the EC50 on Rat mGlu3 was over 10000 nM; on Human mGlu3 it was over 10000 nM; at Rat mGlu2 it was 27 nM; on Human mGlu2 it was 26 nM.

`COc1ccc(C(=O)O)cc1-c1cncc(COc2ccc(C(=O)C3CC3)c(O)c2C)n1` [compound 69, 3-(6-((4-(Cyclopropanecarbonyl)-3-hydroxy-2-methylphenoxy)methyl)pyrazin-2-yl)-4-methoxybenzoic acid]: the EC50 stood at 28 nM at Rat mGlu3, 23 nM on Human mGlu3, 49 nM at Rat mGlu2 and 33 nM on Human mGlu2.

Take `Cc1c(C(=O)O)cccc1-c1cccc(COc2ccc(C(=O)CC(C)(C)C)c(O)c2C)c1` [compound 160, 3′-((4-(3,3-Dimethylbutanoyl)-3-hydroxy-2-methylphenoxy)methyl)-2-methyl-[1,1′-biphenyl]-3-carboxylic acid]: the EC50 at Rat mGlu3 was 855 nM; on Human mGlu3, 1480 nM; at Rat mGlu2, 92 nM; on Human mGlu2 it was 203 nM.

Turning to `COc1ccc(C(=O)O)cc1OCC#CCOc1ccc(C(=O)CC(C)(C)C)c(O)c1C` [Example 10, 3-{4-[4-(3,3-Dimethylbutanoyl)-3-hydroxy-2-methylphenoxy]but-2-ynyloxy}-4-methoxybenzoic acid], the EC50 at Rat mGlu3 stood at 39 nM; at Human mGlu3, 16 nM; at Rat mGlu2, 92 nM; at Human mGlu2, 15 nM.

For `Cc1c(OCCSCCOc2ccc(C(=O)CC(C)(C)C)c(O)c2C)cccc1C(=O)O` [Example 25], the EC50 is 578 nM on Rat mGlu3, 311 nM on Human mGlu3, 137 nM on Rat mGlu2 and 60 nM on Human mGlu2.

Regarding `COc1ccc(-c2cnc(COc3ccc(C(=O)CC(C)(C)C)c(O)c3C)cn2)cc1C(=O)O` [compound 128, 5-(5-((4-(3,3-Dimethylbutanoyl)-3-hydroxy-2-methylphenoxy)methyl)pyrazin-2-yl)-2-methoxybenzoic acid], the EC50 was determined as 104 nM on Rat mGlu3, 148 nM at Human mGlu3, 430 nM on Rat mGlu2 and 297 nM on Human mGlu2.

Take `COc1ccc(C(=O)O)cc1OCCCCSc1ccc(C(=O)CC(C)(C)C)c(O)c1C` [compound 84, 3-{4-[4-(3,3-Dimethylbutanoyl)-3-hydroxy-2-methylphenylthio]butoxy}-4-methoxybenzoic acid]: the EC50 stood at 953 nM at Rat mGlu3, 340 nM at Human mGlu3, 382 nM at Rat mGlu2 and 126 nM on Human mGlu2.

For `CCCC(=O)c1ccc(OCCCCCOc2ccc(C(=O)O)c(Cl)c2)c(C)c1O` [Example 54, 4-[5-(4-Butanoyl-3-hydroxy-2-methylphenoxy)pentyloxy]-2-chlorobenzoic acid], the EC50 is 577 nM on Rat mGlu3, 300 nM at Human mGlu3, 8 nM on Rat mGlu2 and 6 nM at Human mGlu2.
